US6046018A, “Highly sensitive method for assaying chiro-inositol and compositions for the assay” (priority 1997, dated 2000)
Several values for one entry are separate records, joined by “and”; a condition that tells them apart may be missing. Identical values can stand only once.

How the values were obtained:
[1] = test system: crude enzyme which catalyses chiroinositol, S. r. 301 origin; experiment: Substrate specificity (Table 3); format: biochemical, Streptomyces roseogriseus 301; parameters: concentration or dose not given beside the values; conditions: enzyme assay reaction solution, D-chiroinositol replaced by substrates
From the text: (§1) In A. r. 1215 origin, the same assay method used in Bacillus sp. No. 3 is applied by replacing coenzyme to thio-NADP. In S. r. 301 origin, the reaction solution used for enzyme assay is used by replacing D-chiroinositol for various concentrations of substrates with adding constant concentration of enzyme solution to assay relative activities.

[2] = test system: dehydrogenase which catalyses chiroinositol (Bacillus sp. No. 3 origin); experiment: Substrate specificity (Table 1); format: biochemical; conditions: equal concentration of substrates; glycine-NaOH pH 9.8, thio-NAD/NADH cycling
Procedure: Substrate specificity is assayed by using following reaction solution at the equal concentration of substrates.
200 mM glycine-NaOH buffer (pH 9.8)
0.03 mM NADH (Oriental Yeast Corp., Japan)
100 U/ml dehydrogenase which catalyses chiroinosiol
2 Mm thio-NAD (Oriental Yeast Corp., Japan)
D-chiroinositol, galactose, fructose, mannitol, mannose; Japan, Wako Pure Chemicals Inc., myo-, epi-, scyllo-inositol U.S.A. SIGMA Corp.

[3] = test system: crude enzyme which catalyses chiroinositol, A. r. 1215 origin; experiment: Km value for D-chiroinositol; format: biochemical, Agrobacterium rhizogenes 1215
Procedure: (§2) Km value for D-chiroinositol is shown. Measurement is performed by changing substrate concentration in the above assay method.

[4] = test system: dehydrogenase which catalyses chiroinositol (Bacillus sp. No. 3 origin); experiment: Km value; format: biochemical
Procedure: 100 mM glycine-NaOH buffer (pH 11.0)
1 mM NAD (Oriental Yeast Corp., Japan)
10 mM D-chiroinosiol (Wako Pure Chemicals Inc., Japan)
The above reaction solution 1 ml in quartz cell is set in spectrophotometer which is (controlled at 37° C. After over 5 minutes incubation, aliquot diluted enzyme solution 20 μl is added and stirred. Absorption changes per minute at A340 are measured to obtain initial reaction rate and to calculate relative activity.
Km values are measured at various concentrations using 10 mM
D-chiroinositol and mM NAD.
Km for thio-NAD is measured by replacing NAD to thio-NAD.

[5] = test system: crude enzyme which catalyses chiroinositol, A. r. 1215 origin; experiment: Substrate specificity (Table 3); format: biochemical, Agrobacterium rhizogenes 1215; conditions: coenzyme replaced by thio-NADP
From the text: as §1

[6] = test system: crude enzyme which catalyses chiroinositol, S. r. 301 origin; experiment: Km value for D-chiroinositol; format: biochemical, Streptomyces roseogriseus 301
Procedure: as §2

[7] = test system: crude enzyme which catalyses chiroinositol, A. r. 1215 origin; experiment: Relative activities using various coenzymes (Table 2); format: biochemical, Agrobacterium rhizogenes 1215; conditions: activity using NAD is set as 100%
From the text: (§3) The same as in the enzyme originated from Bacillus sp. No. 3.
(§4) The same as in the enzyme originated from Bacillus sp. No. 3. Relative activities using various coenzymes are shown in Table 2 (activity using NAD is set as 100%).

[8] = test system: dehydrogenase which catalyses chiroinositol (Bacillus sp. No. 3 origin); experiment: Initial rate of enzyme reaction with various coenzymes; format: biochemical; conditions: 10 mM D-chiroinositol, 1 mM coenzyme; for Initial rate of enzyme reaction: 37° C., at optimum pH; for Optimum pH for the coenzyme: 100 mM Gly-NaOH buffer
Procedure: 100 mM Gly-NaOH buffer approx. pH 10 (at optimum pH)
10 mM D-chiroinositol (Wako Pure Chemicals Inc., Japan)
1 mM Coenzyme (NAD(P), thio-NAD(P); Oriental Yeast
Optimum pH are pH 11.0 for NAD, deamino NAD and thio-NAD, pH 10.5 for acetyl NAD, and pH 10.0 for aldehyde NAD and NADP.
The above reaction solution 1 ml in quartz cell is set in spectrophotometer which is controlled at 37° C. After over 5 minutes incubation, enzyme solution 140 U/ml (NAD and deamino NAD; 14 U/ml) 20 μl is added and stirred. Absorption changes per minute in specific wavelength for each reduced coenzyme is measured to obtain initial reaction rate. (For NAD and deamino NAD, measured value is increased number by ten for adjusting the amount of enzyme.)

[9] = test system: crude enzyme which catalyses chiroinositol, S. r. 301 origin; experiment: Relative activities using various coenzymes (Table 2); format: biochemical, Streptomyces roseogriseus 301; conditions: activity using NAD is set as 100%
From the text: as §3, §4

[10] = test system: dehydrogenase which catalyses chiroinositol (Bacillus sp. No. 3 origin); experiment: Initial rate of enzyme reaction with various coenzymes; format: biochemical; conditions: thio-NAD forward reaction, NADH reverse reaction
[11] = NAD and deamino NAD values increased by ten for enzyme amount

Molecule | Relative activity, S.r.301 origin [1] | Relative activity [2] | Relative activity, A.r.1215 origin [5] | Relative activity, A.r.1215 origin [7] | Optimum pH for the coenzyme [8] | Relative activity, S.r.301 origin [9] | other results
O[C@H]1[C@H](O)[C@H](O)[C@@H](O)[C@H](O)[C@H]1O [D-chiroinositol] | 100% | 100% | 100% |  |  |  | Km [3]: 30.6 ± 1 mM; Km ([4]; NAD replaced by thio-NAD): 12.8 ± 0.5 mM; Km ([4]; coenzyme NAD): 5.2 ± 0.5 mM; Km [6]: 27.6 ± 1 mM
NC(=O)c1ccc[n+]([C@@H]2O[C@H](COP(=O)([O-])OP(=O)(O)OC[C@H]3O[C@@H](n4cnc5c(N)ncnc54)[C@H](O)[C@@H]3O)[C@@H](O)[C@H]2O)c1 [NAD, nicotinamide adenine dinucleotide] |  |  |  | 190% | 11.0 pH | 100% | Initial rate of enzyme reaction [8, 11]: 13 Abs/min.; Km ([4]; coenzyme NAD): 0.5 ± 0.1 mM
NC(=O)C1=CN([C@@H]2O[C@H](COP(=O)(O)OP(=O)(O)OC[C@H]3O[C@@H](n4cnc5c(N)ncnc54)[C@H](O)[C@@H]3O)[C@@H](O)[C@H]2O)C=CC1 [NADH] |  |  |  |  |  |  | Optimum pH of reaction in the cycling reaction [10]: ~10.0 pH
NC(=O)c1ccc[n+]([C@@H]2O[C@H](COP(=O)([O-])OP(=O)(O)OC[C@H]3O[C@@H](n4cnc5c(N)ncnc54)[C@H](OP(=O)(O)O)[C@@H]3O)[C@@H](O)[C@H]2O)c1 [NADP] |  |  |  | 1855% | 10.0 pH | 0% | Initial rate of enzyme reaction [8]: 80 mAbs/min.
CC(=O)c1ccc[n+]([C@@H]2O[C@H](COP(=O)([O-])OP(=O)(O)OC[C@H]3O[C@@H](n4cnc5c(N)ncnc54)[C@H](O)[C@@H]3O)[C@@H](O)[C@H]2O)c1 [acetyl NAD, acetylpyridine adenine dinucleotide] |  |  |  | 26% | 10.5 pH | 195% | Initial rate of enzyme reaction [8]: 260 mAbs/min.
Nc1ncnc2c1ncn2[C@@H]1O[C@H](COP(=O)(O)OP(=O)([O-])OC[C@H]2O[C@@H]([n+]3cccc(C=O)c3)[C@H](O)[C@@H]2O)[C@@H](O)[C@H]1O [aldehyde NAD, pyridine aldehyde adenine dinucleotide] |  |  |  | 15% | 10.0 pH | 20% | Initial rate of enzyme reaction [8]: 140 mAbs/min.
NC(=O)c1ccc[n+]([C@@H]2O[C@H](COP(=O)([O-])OP(=O)(O)OC[C@H]3O[C@@H](n4cnc5c(=O)[nH]cnc54)[C@H](O)[C@@H]3O)[C@@H](O)[C@H]2O)c1 [deamino NAD, nicotinamide hypoxanthine dinucleotide] |  |  |  | 44% | 11.0 pH | 110% | Initial rate of enzyme reaction [8, 11]: 12 Abs/min.
O[C@H]1[C@@H](O)[C@@H](O)[C@@H](O)[C@@H](O)[C@@H]1O [epi-inositol] | 4% | 0% | 0% |  |  |  | 
O=C(CO)[C@@H](O)[C@H](O)[C@H](O)CO [fructose] | 0% | 0% | 0% |  |  |  | 
OC[C@@H](O)[C@@H](O)[C@H](O)[C@H](O)CO [mannitol] | 0% | 0% | 0% |  |  |  | 
O[C@H]1[C@H](O)[C@@H](O)[C@H](O)[C@@H](O)[C@H]1O [myoinositol] | 0% | 9% | 33% |  |  |  | 
O[C@H]1[C@H](O)[C@@H](O)[C@H](O)[C@@H](O)[C@@H]1O [scylloinositol] | 0% | 0% | 0% |  |  |  | 
NC(=S)c1ccc[n+]([C@@H]2O[C@H](COP(=O)([O-])OP(=O)(O)OC[C@H]3O[C@@H](n4cnc5c(N)ncnc54)[C@H](O)[C@@H]3O)[C@@H](O)[C@H]2O)c1 [thio-NAD, thio-nicotinamide adenine dinucleotide] |  |  |  | 0% | 11.0 pH | 6% | Initial rate of enzyme reaction [8, 11]: 2.5 Abs/min.; Km ([4]; NAD replaced by thio-NAD): 0.9 mM and 0.87 mM; Optimum pH of reaction in the cycling reaction [10]: ~10.5 pH
NC(=S)c1ccc[n+]([C@@H]2O[C@H](COP(=O)([O-])OP(=O)(O)OC[C@H]3O[C@@H](n4cnc5c(N)ncnc54)[C@H](OP(=O)(O)O)[C@@H]3O)[C@@H](O)[C@H]2O)c1 [thio-NADP] |  |  |  | 269% |  | 0% | 
galactose |  | 0% |  |  |  |  | 
mannose | 0% | 0% | 10% |  |  |  | 
